According to patent US8278304B2, “Substituted 4-hydroxypyrimidine-5-carboxamides” (Merck Sharp & Dohme Corp., priority 2008, dated 2012):

Molecular target: T1, PHD2 (Homo sapiens, UniProt Q9GZT9)
T1 construct: FLAG-tagged full length PHD2 expressed in and purified from baculovirus-infected Sf9 cells; FLAG; made in house; host or cells: baculovirus-infected Sf9 cells
Assay: PHD2 / HIF-1α peptide hydroxylation assay, time resolved fluorescence (VHL complex detection)
Assay type: biochemical
Settings: FLAG-tagged full length PHD2; 0.2 μM 2-oxoglutarate, 0.5 μM HIF-1α peptide; read-out: PHD2 Activity (PHD2 binding activity expressed as IC50 (nM))
Procedure: To each well of a 96-well plate was added 1 μL of test compound in DMSO and 20 μl of assay buffer (50 mM Tris pH 7.4/0.01% Tween-20/0.1 mg/ml bovine serum albumin/10 μM ferrous sulfate/1 mM sodium ascorbate/20 μg/ml catalase) containing 0.15 μg/ml FLAG-tagged full length PHD2 expressed in and purified from baculovirus-infected Sf9 cells. After a 30 min preincubation at room temperature, the enzymatic reactions were initiated by the addition of 4 μL of substrates (final concentrations of 0.2 μM 2-oxoglutarate and 0.5 μM HIF-1α peptide biotinyl-[…]).

T1 sequence (Q9GZT9 whole entry): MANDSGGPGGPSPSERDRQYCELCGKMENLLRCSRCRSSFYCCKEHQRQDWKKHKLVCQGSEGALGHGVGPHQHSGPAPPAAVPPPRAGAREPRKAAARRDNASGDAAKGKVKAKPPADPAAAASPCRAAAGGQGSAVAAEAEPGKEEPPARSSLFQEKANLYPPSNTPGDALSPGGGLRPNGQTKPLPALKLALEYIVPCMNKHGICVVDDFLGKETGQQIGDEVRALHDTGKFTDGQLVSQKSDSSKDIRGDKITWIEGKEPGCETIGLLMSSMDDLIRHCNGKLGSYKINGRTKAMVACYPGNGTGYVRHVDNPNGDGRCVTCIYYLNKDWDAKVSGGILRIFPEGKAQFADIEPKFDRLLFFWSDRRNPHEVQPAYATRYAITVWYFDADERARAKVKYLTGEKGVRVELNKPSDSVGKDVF

| IC50 [nM] | SMILES |
| --- | --- |
| 100 to 1000 | Cc1cc(C)n(-c2ncc(C(=O)NCc3ccc(OC(F)(F)F)cc3)c(O)n2)n1 [Example 44, 2-(3,5-Dimethyl-1H-pyrazol-1-yl)-4-hydroxy-N-[4-(trifluoromethoxy)benzyl]pyrimidine-5-carboxamide] |
| ≤ 10 | CC(C)(O)[C@H](NC(=O)c1cnc(-n2cccn2)nc1O)c1ccccc1 [Example 128, 4-hydroxy-N-[(1R)-2-hydroxy-2-methyl-1-phenylpropyl]-2-(1H-pyrazol-1-yl)pyrimidine-5-carboxamide] |
| ≤ 10 | CC(O)c1ccc(C(NC(=O)c2cnc(-c3cccnn3)nc2O)c2ccc(Cl)cc2)cc1 (stereo not shown) [Example 179, N-{(4-chlorophenyl)[4-(1-hydroxyethyl)phenyl]methyl}-4-hydroxy-2-(pyridazin-3-yl)pyrimidine-5-carboxamide] |
| ≤ 10 | O=C(NCc1ccc(-c2ccc(F)cc2)cc1)c1cnc(-n2cccn2)nc1O [Example 63, N-[(4′-fluorobiphenyl-4-yl)methyl]-4-hydroxy-2-(1H-pyrazol-1-yl)pyrimidine-5-carboxamide] |
| 100 to 1000 | N#Cc1ccc(C(NC(=O)c2cnc(-c3cccnn3)nc2O)C2CCCCC2)cc1 (single isomer, unassigned) [Example 162, N-[(4-cyanophenyl)(cyclohexyl)methyl]-4-hydroxy-2-(pyridazin-3-yl)pyrimidine-5-carboxamide] |
| ≤ 10 | O=C(NCc1cccc(-c2ccccc2)c1)c1cnc(-n2cccn2)nc1O [Example 53, N-(biphenyl-3-ylmethyl)-4-hydroxy-2-(1H-pyrazol-1-yl)pyrimidine-5-carboxamide] |
| ≤ 10 | COc1ccc(C(NC(=O)c2cnc(-c3cccnn3)nc2O)c2ccc3ccccc3n2)cc1 (stereo not shown) [Example 171, 4-hydroxy-N-[(4-methoxyphenyl)(quinolin-2-yl)methyl]-2-(pyridazin-3-yl)pyrimidine-5-carboxamide] |
| ≤ 10 | COc1ccc(C(NC(=O)c2cnc(-c3cccnn3)nc2O)c2ccc(F)cc2)c(OC)n1 (stereo not shown) [Example 177, N-[(2,6-dimethoxypyridin-3-yl)(4-fluorophenyl)methyl]-4-hydroxy-2-(pyridazin-3-yl)pyrimidine-5-carboxamide] |
| ≤ 10 | COCc1ccc(C(NC(=O)c2cnc(-c3cccnn3)nc2O)c2ccc(OC)cc2)cc1 (single isomer, unassigned) [Example 182, 4-Hydroxy-N-[[4-(methoxymethyl)phenyl](4-methoxyphenyl)methyl]-2-pyridazin-3-ylpyrimidine-5-carboxamide] |
| ≤ 10 | COc1ccc(C(NC(=O)c2cnc(-c3cccnn3)nc2O)c2ccc(OC)nc2)cc1 (single isomer, unassigned) [Example 190] |
| 10 to 100 | O=C(NCc1cccc2ccccc12)c1cnc(-n2cccn2)nc1O [Example 56, 4-Hydroxy-N-(1-naphthylmethyl)-2-(1H-pyrazol-1-yl)pyrimidine-5-carboxamide] |
| ≤ 10 | N#Cc1ccc(C(NC(=O)c2cnc(-c3cccnn3)nc2O)C2CCCCC2)cc1 (single isomer, unassigned) [Example 163, N-[(4-cyanophenyl)(cyclohexyl)methyl]-4-hydroxy-2-(pyridazin-3-yl)pyrimidine-5-carboxamide] |
| 10 to 100 | O=C(NCc1cnc(Cl)cn1)c1cnc(-n2cccn2)nc1O [Example 64, N-[(5-chloropyrazin-2-yl)methyl]-4-hydroxy-2-(1H-pyrazol-1-yl)pyrimidine-5-carboxamide] |
| ≤ 10 | CC(C)(NC(=O)c1cnc(-n2cccn2)nc1O)c1ccc(F)cc1 [Example 73, N-[1-(4-fluorophenyl)-1-methylethyl]-4-hydroxy-2-(1H-pyrazol-1-yl)pyrimidine-5-carboxamide] |
| ≤ 10 | COc1ccc(C(NC(=O)c2cnc(-c3cccnn3)nc2O)c2ccc(F)cc2)c(OC)c1 (stereo not shown) [Example 176, N-[(2,4-dimethoxyphenyl)(4-fluorophenyl)methyl]-4-hydroxy-2-(pyridazin-3-yl)pyrimidine-5-carboxamide] |
| 10 to 100 | Cc1ccc([C@@H](C)NC(=O)c2cnc(-n3cccn3)nc2O)cc1 [Example 78, 4-Hydroxy-N-[(1R)-1-(4-methylphenyl)ethyl]-2-(1H-pyrazol-1-yl)pyrimidine-5-carboxamide] |
| ≤ 10 | COc1ccc(C(NC(=O)c2cnc(-c3cccnn3)nc2O)c2ccc(O)cc2)cc1 (single isomer, unassigned) [Example 156, 4-hydroxy-N-[(4-hydroxyphenyl)(4-methoxyphenyl)methyl]-2-(pyridazin-3-yl)pyrimidine-5-carboxamide] |
| ≤ 10 | O=C(NCc1ccc(-c2ccccc2Cl)cc1)c1cnc(-n2cccn2)nc1O [Example 62, N-[(2′-chlorobiphenyl-4-yl)methyl]-4-hydroxy-2-(1H-pyrazol-1-yl)pyrimidine-5-carboxamide] |
| ≤ 10 | O=C(NC(c1ccccc1)c1ccc(C(F)(F)F)nc1)c1cnc(-n2cccn2)nc1O (single isomer, unassigned) [Example 143, 4-hydroxy-N-{phenyl[6-(trifluoromethyl)pyridin-3-yl]methyl}-2-(1H-pyrazol-1-yl)pyrimidine-5-carboxamide] |

| IC50 [nM] | SMILES |
| --- | --- |
| ≤ 10 | C[C@H](NC(=O)c1cnc(-n2cccn2)nc1O)c1ccc2ccccc2c1 [Example 121, 4-hydroxy-N-[(1S)-1-(naphthalen-2-yl)ethyl]-2-(1H-pyrazol-1-yl)pyrimidine-5-carboxamide] |
| ≤ 10 | O=C(NC(Cc1ccccc1)c1ccccc1)c1cnc(-n2cccn2)nc1O (stereo not shown) [Example 67, N-(1,2-diphenylethyl)-4-hydroxy-2-(1H-pyrazol-1-yl)pyrimidine-5-carboxamide] |
| 100 to 1000 | Cc1nc(-c2ncc(C(=O)NCc3ccc(OC(F)(F)F)cc3)c(O)n2)cs1 [Example 31, 4-Hydroxy-2-(2-methyl-1,3-thiazol-4-yl)-N-[4-(trifluoromethoxy)benzyl]pyrimidine-5-carboxamide] |
| 100 to 1000 | O=C(NC(c1ccccc1)c1ccccc1)c1cnc(-c2ccc[nH]2)nc1O [Example 45, N-(diphenylmethyl)-4-hydroxy-2-(1H-pyrrol-2-yl)pyrimidine-5-carboxamide] |
| 1000 to 10000 | O=C(NCc1ccc(F)cc1)c1cnc(-c2ncccn2)nc1O [Example 21, N-(4-fluorobenzyl)-4-hydroxy-2,2′-bipyrimidine-5-carboxamide] |
| 1000 to 10000 | Cc1nc(-c2ncc(C(=O)Nc3ccc(C(F)(F)F)cc3)c(O)n2)cs1 [Example 34, 4-Hydroxy-2-(2-methyl-1,3-thiazol-4-yl)-N-[4-(trifluoromethyl)phenyl]pyrimidine-5-carboxamide] |
| ≤ 10 | O=C(NC(c1ccccc1)c1ccc(C(F)(F)F)nc1)c1cnc(-n2cccn2)nc1O (single isomer, unassigned) [Example 142, 4-hydroxy-N-{phenyl[6-(trifluoromethyl)pyridin-3-yl]methyl}-2-(1H-pyrazol-1-yl)pyrimidine-5-carboxamide] |
| ≤ 10 | COc1ccc(C(NC(=O)c2cnc(-c3cccnn3)nc2O)c2ccc(OC)cc2C)c(C)c1 [Example 175, N-[bis(4-methoxy-2-methylphenyl)methyl]-4-hydroxy-2-(pyridazin-3-yl)pyrimidine-5-carboxamide] |
| ≤ 10 | O=C(NC(c1ccccc1)c1ccncc1)c1cnc(-n2cccn2)nc1O (stereo not shown) [Example 58, 4-Hydroxy-N-[phenyl(pyridin-4-yl)methyl]-2-(1H-pyrazol-1-yl)pyrimidine-5-carboxamide] |
| ≤ 10 | O=C(NC1(c2ccccc2)CCCCC1)c1cnc(-n2cccn2)nc1O [Example 94, 4-hydroxy-N-(1-phenylcyclohexyl)-2-(1H-pyrazol-1-yl)pyrimidine-5-carboxamide] |
| ≤ 10 | COc1ccc(CC(NC(=O)c2cnc(-c3cccnn3)nc2O)c2ccc(C#N)cc2)cc1 (single isomer, unassigned) [Example 161, N-[1-(4-cyanophenyl)-2-(4-methoxyphenyl)ethyl]-4-hydroxy-2-(pyridazin-3-yl)pyrimidine-5-carboxamide] |
| 10 to 100 | CC(C)(NC(=O)c1cnc(-c2cnccn2)nc1O)c1ccccc1 [Example 19, 4-Hydroxy-N-(1-methyl-1-phenylethyl)-2-pyrazin-2-ylpyrimidine-5-carboxamide] |
| ≤ 10 | COCc1ccc(C(NC(=O)c2cnc(-c3cccnn3)nc2O)c2ccc(OC)cc2)cc1 (racemic) [Example 181] |
| 10 to 100 | O=C(N[C@H]1CCc2ccccc21)c1cnc(-n2cccn2)nc1O [Example 119, N-[(1S)-2,3-dihydro-1H-inden-1-yl]-4-hydroxy-2-(1H-pyrazol-1-yl)pyrimidine-5-carboxamide] |
| 100 to 1000 | O=C(NCc1cc(C(F)(F)F)cc(C(F)(F)F)c1)c1cnc(-n2cccn2)nc1O [Example 65, N-[3,5-bis(trifluoromethyl)benzyl]-4-hydroxy-2-(1H-pyrazol-1-yl)pyrimidine-5-carboxamide] |
| 10 to 100 | O=C(NCc1ccccc1Cl)c1cnc(-c2cccnn2)nc1O [Example 24, N-(2-chlorobenzyl)-4-hydroxy-2-pyridazin-3-ylpyrimidine-5-carboxamide] |
| 10 to 100 | CC(NC(=O)c1cnc(-n2cccn2)nc1O)c1ccccn1 (stereo not shown) [Example 118, 4-hydroxy-2-(1H-pyrazol-1-yl)-N-[1-(pyridin-2-yl)ethyl]pyrimidine-5-carboxamide] |
| 10 to 100 | CC[C@H](NC(=O)c1cnc(-c2csc(C)n2)nc1O)c1ccccc1 [Example 35, 4-Hydroxy-2-(2-methyl-1,3-thiazol-4-yl)-N-[(1S)-1-phenylpropyl]pyrimidine-5-carboxamide] |
